What was measured:
[1] = tested on: Human castration resistant prostate cancer cell line 22Rv1; test: Cell growth inhibition experiment (CellTiter-Glo), 22Rv1; assay type: cell-based; conditions: 22Rv1 cells treated with the compound for 5 days
Description: (§1) Human castration resistant prostate cancer cell line 22Rv1 and LNCaP clone FGC (22Rv1 cell line was from ATCC, CRL-2505, LNCaP clone FGC cell line was purchased from Cell Bank of the Chinese Academy of Sciences) were cultured with RPMI 1640 medium (Gibco, available from Life Technologies Corporation, 22400-089) containing 10% fetal bovine serum (Gibco, available from Life Technologies, 10099-141) and 1% antibiotics (penicillin and streptomycin, available from Life Technologies Corporation, 10378016) in a CO2 cell incubator (37° C., 5% CO2). In the cell growth inhibition experiment, 22Rv1 and LNCaP clone FGC cells in exponential growth phase were seeded on a 96-well plate (purchased from Corning Company, 3599) with a volume of 150 μL/well and a cell density of 1,500 cells/well. After seeded, the plate was placed in a CO2 incubator to incubate overnight to allow the cells to adhere. On the next day, 50 μL of a compound at different concentrations diluted in 3-fold gradient or DMSO were added in a 96-well plate containing the cells. The final concentration of the compound ranges from 0.3 to 10000 nM, and the final concentration of DMSO is 0.05% as control group. The cells were treated by the compound for 5 days. Cell viability was measured using CellTiter-Glo reagent (purchased from Promega, G7572): the cell treated with the compound for 5 days was added with CellTiter-Glo reagent at 40 μL/well, incubated at room temperature for 10 min, transferred to a white 96-well plate (OptiPlate-96, purchased from PerkinElmer, 605299) by 70 μL. Subsequently, the luminescence signal was detected using a multifunctional microplate reader EnVision (purchased from PerkinElmer) at a wavelength of 400-700 nm. The data was analyzed by using GraphPad Prism 5.0 software to obtain IC50.

[2] = tested on: Human castration resistant prostate cancer cell line LNCaP clone FGC; test: Cell growth inhibition experiment (CellTiter-Glo), LNCaP clone FGC; assay type: cell-based; conditions: LNCaP clone FGC cells treated with the compound for 5 days
Description: as §1

[3] = tested on: human mantle cell lymphoma (MCL) cell line MAVER-1; test: Cell growth inhibition experiment (CellTiter-Glo), MAVER-1; assay type: cell-based; conditions: MAVER-1 cells treated with the compound for 5 days
Description: The human mantle cell lymphoma (MCL) cell line MAVER-1 (from ATCC, CRL-3008) was cultured with RPMI 1640 medium (Gibco, available from Life Technologies Corporation, 22400-089) containing […] (Gibco, available from Life Technologies, 10099-141) and 1% antibiotics (penicillin and streptomycin, available from Life Technologies Corporation, 10378016) in a CO2 cell incubator (37° C., 5% CO2). In the cell growth inhibition experiment, MAVER-1 cells in exponential growth phase were seeded on a 96-well plate (purchased from Corning Company, 3599) in a volume of 100 μL/well and a cell density of 1*10E5 cells/well. After seeded, the plate was placed in a CO2 incubator to culture for 1 h. 100 μL of a compound at different concentrations diluted in 3-fold gradient or DMSO were added in a 96-well plate containing the cells. The final concentration of the compound ranges from 0.3 to 10000 nM, and the final concentration of DMSO is 0.05% as control group. The cells were treated with the compound for 5 days. Cell viability was measured using CellTiter-Glo reagent (purchased from Promega, G7572): the cells treated with the compound for 5 days was added with CellTiter-Glo reagent at 20 μL/well, incubated at room temperature for 10 min, transferred to a white 96-well plate (OptiPlate-96, purchased from PerkinElmer, 605299) by 80 μL. Subsequently, the luminescence signal was detected by using a multifunctional microplate reader EnVision (purchased from PerkinElmer) at a wavelength of 400-700 nm. The data was analyzed by using GraphPad Prism 5.0 software to obtain IC50.

[4] = molecular target: T1, histone acetyltransferase p300 (Homo sapiens, UniProt Q09472); test: Histone acetyltransferase (p300) activity assay (radioisotope, [3H]-Ac-CoA); assay type: biochemical; conditions: p300 0.05 nM; histone peptide 600 nM, [3H]-Ac-CoA 250 nM; 60 min at room temperature; read-out: Inhibition rate IC50
T1 construct: purchased BPS Corporation 50071
T1 sequence (Q09472 1284-1673 limits assumed): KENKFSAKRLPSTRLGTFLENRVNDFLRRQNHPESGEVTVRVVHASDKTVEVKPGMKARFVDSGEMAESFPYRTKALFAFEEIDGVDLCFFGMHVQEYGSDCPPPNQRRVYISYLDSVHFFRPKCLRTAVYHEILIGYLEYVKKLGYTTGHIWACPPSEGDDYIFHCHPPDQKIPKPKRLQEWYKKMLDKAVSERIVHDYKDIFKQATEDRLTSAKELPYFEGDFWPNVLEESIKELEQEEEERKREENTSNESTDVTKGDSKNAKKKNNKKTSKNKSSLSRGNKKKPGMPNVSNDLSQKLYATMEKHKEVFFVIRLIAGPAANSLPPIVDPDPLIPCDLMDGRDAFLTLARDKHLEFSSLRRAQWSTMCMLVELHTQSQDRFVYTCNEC
Description: The reaction was finally terminated with Ac-CoA (Sigma, Cat. No. A2056) without isotope labeling. If the activity of the acetyltransferase p300 was inhibited, the isotope signal cannot be detected on the substrate polypeptide. Therefore, the inhibitory activity of the compound against the acetyltransferase p300 was evaluated.
In the enzyme reaction system, 200 nL of a diluted compound (100% DMSO) was first transferred to a test plate using Echo, where the final concentration of the compound in the enzyme reaction system ranges from 0.25 to 5000 nM. Then 10 μL/well of p300 protein (final concentration of 0.05 nM) was transferred therein, and incubated with the compound for 15 min at room temperature. Then 10 μL/well of a substrate mixture (final concentrations of histone peptide and [^3H]—Ac-CoA were 600 nM and 250 nM, respectively) was added to start the enzyme-catalyzed reaction, and incubated at room temperature for 60 min. Then 10 µL/well of a 250 μM cold Ac-CoA solution was added to stop the reaction. Finally 25 μL/well of the reaction solution was transferred to a 384-well Flashplate (Perkin Elmer, Cat. No. SMP410A001PK), and incubated at room temperature for 1 h. The resultant was washed with double distilled water+0.1% Tween-20 three times. The signal value was read by using Microbeta. The data was analyzed by using GraphPad Prism 5.0 software to obtain IC50.

SMILES	IC50 [1] [nM]	IC50 [2] [nM]	IC50 [3] [nM]	IC50 ([1]; Homo sapiens, 120 h) [nM]	IC50 ([2]; Homo sapiens, 120 h) [nM]	IC50 ([3]; Homo sapiens, Maver1, 120 h) [nM]	IC50 [4] [nM]
CNC(=O)Nc1ccc2c(c1)CC[C@]21OC(=O)N(CC(=O)N2Cc3ccccc3CC[C@H]2C)C1=O [SYY-B015-1]	–	–	–	345	168	104	12
CNC(=O)Nc1ccc2c(c1)CC[C@@]21OC(=O)N(CC(=O)N2Cc3ccccc3CC[C@H]2C)C1=O [SYY-B015-2]	–	–	–	33	15	18	3.7
CNC(=O)Nc1ccc2c(c1)CC[C@@]21OC(=O)N(CC(=O)N2Cc3ccccc3CC[C@H]2C(C)C)C1=O [SYY-B019-2]	–	–	–	5	9	17	2
CNC(=O)Nc1ccc2c(c1)CC[C@]21OC(=O)N(CC(=O)N2Cc3ccc(F)cc3CC[C@H]2C)C1=O [SYY-B021-1]	–	–	–	107	63	32	3
CNC(=O)Nc1ccc2c(c1)CC[C@@]21OC(=O)N(CC(=O)N2Cc3ccc(F)cc3CC[C@H]2C)C1=O [SYY-B021-2]	–	–	–	24	13	22	3
CCC[C@@H]1CCc2ccccc2CN1C(=O)CN1C(=O)O[C@]2(CCc3cc(NC(=O)NC)ccc32)C1=O [SYY-B023-1]	–	–	–	50	65	23	4
CNC(=O)Nc1ccc2c(c1)CC[C@]21OC(=O)N(CC(=O)N2Cc3ccc(F)cc3CC[C@H]2C2CC2)C1=O [SYY-B025-1]	–	–	–	79	67	44	1.6
CNC(=O)Nc1ccc2c(c1)CC[C@@]21OC(=O)N(CC(=O)N2Cc3ccccc3CC[C@H]2C(F)(F)F)C1=O [SYY-B027-2]	–	–	–	23	14	13	3.1
CNC(=O)Nc1ccc2c(c1)CC[C@@]21OC(=O)N(CC(=O)N2Cc3cc(F)ccc3OC[C@H]2C2CC2)C1=O [SYY-B029-2]	–	–	–	–	13	15	1.4
CNC(=O)Nc1ccc2c(c1)CC[C@@]21OC(=O)N(CC(=O)N2Cc3ccc(F)cc3CC[C@H]2C(F)(F)F)C1=O [SYY-B031-2]	–	–	–	23	66	18	1.9

Now from value to compound:

IC50 [1] [nM]	IC50 [2] [nM]	IC50 [3] [nM]	IC50 ([1]; Homo sapiens, 120 h) [nM]	IC50 ([2]; Homo sapiens, 120 h) [nM]	IC50 ([3]; Homo sapiens, Maver1, 120 h) [nM]	IC50 [4] [nM]	SMILES
384	215	206	–	–	–	–	CNC(=O)Nc1ccc2c(c1)CC[C@@]21OC(=O)N(CC(=O)N(Cc2ccc(F)cc2)[C@@H](C)C(F)(F)F)C1=O [Example A-485, reference compound]
–	–	–	258	164	112	–	CNC(=O)Nc1ccc2c(c1)CCC21OC(=O)N(CC(=O)N2Cc3ccccc3CCC2C)C1=O (stereo not drawn) [SYY-B003]
–	–	–	88	73	49	3.3	CNC(=O)Nc1ccc2c(c1)CC[C@]21OC(=O)N(CC(=O)N2Cc3ccccc3CC[C@H]2C2CC2)C1=O [SYY-B018-1]
–	–	–	5	6	6	0.67	CNC(=O)Nc1ccc2c(c1)CC[C@@]21OC(=O)N(CC(=O)N2Cc3ccccc3CC[C@H]2C2CC2)C1=O [SYY-B018-2]
–	–	–	205	186	40	2.7	CNC(=O)Nc1ccc2c(c1)CC[C@]21OC(=O)N(CC(=O)N2Cc3ccccc3CC[C@H]2C(C)C)C1=O [SYY-B019-1]
–	–	–	3	4	12	2	CCC[C@@H]1CCc2ccccc2CN1C(=O)CN1C(=O)O[C@@]2(CCc3cc(NC(=O)NC)ccc32)C1=O [SYY-B023-2]
–	–	–	77	53	116	24	CCC[C@H]1CCc2ccccc2CN1C(=O)CN1C(=O)O[C@@]2(CCc3cc(NC(=O)NC)ccc32)C1=O [SYY-B024-2]
–	–	–	9	11	9	1.1	CNC(=O)Nc1ccc2c(c1)CC[C@@]21OC(=O)N(CC(=O)N2Cc3ccc(F)cc3CC[C@H]2C2CC2)C1=O [SYY-B025-2]
–	–	–	358	132	254	18	CNC(=O)Nc1ccc2c(c1)CC[C@@]21OC(=O)N(CC(=O)N2Cc3ccc(F)cc3CC[C@@H]2C2CC2)C1=O [SYY-B026-2]
–	–	–	146	82	66	4.1	CNC(=O)Nc1ccc2c(c1)CC[C@]21OC(=O)N(CC(=O)N2Cc3cc(F)ccc3OC[C@H]2C2CC2)C1=O [SYY-B029-1]
–	–	–	210	91	61	1.8	CNC(=O)Nc1ccc2c(c1)CC[C@]21OC(=O)N(CC(=O)N2Cc3ccc(F)cc3CC[C@H]2C(F)(F)F)C1=O [SYY-B031-1]
–	–	–	< 100	< 100	–	3.4	Cn1cc(-c2ccc3c(c2)CC[C@@]32OC(=O)N(CC(=O)N3Cc4ccc(F)cc4CC[C@H]3C3CC3)C2=O)cn1 [SYY-B041-2]
